Like-named read-outs stand apart in the source and are kept apart here.
How the values were obtained:
[1] = test system: methitilin resistance staphylococcus aureus, MRSA (stock no. SCK18); assay type: cell-based; details: for colony formation unit (CFU): 24-hour incubation at 37° C., initial 10^8, control 10^10
[2] = test system: single strand DNA, double strand DNA and mRNA of E. coli bacteriophage; test: Antiviral effect, E. coli bacteriophage structure and infection, electron microscopes; assay type: cell-based
Protocol: (§1) In order to investigate the effect on virus, changes in structure of single strand DNA, double strand DNA and mRNA of E. coli bacteriophage (1 ml of 1 mol solution), which were prepared as non-treated sample and treated sample with 4 μl of Yoshixol, were observed by scanning and transmission electron microscopes. In addition, according a general bacteriological technique, changes in proliferation and in morphological aspect (by scanning and transmission electron microscopes) of E. Coli, which was infected by single strand DNA, double strand DNA or mRNA, were investigated before and after treatment of each phage with Yoshixol. As treated samples, 4 μl of Yoshixol was added in 1 ml of each phage solution which concentration was adjusted to 1 mol. […] In addition, an effect of Yoshixol on chicken myeloblastosis virus (AMV) reverse transcriptase (Gibco Co. Getesburg, Md., USA) was investigated by measuring amount of cDNA synthesis, which was amplified by PCR of RNA(5 μg) and AMV reverse transcriptase (25 units). As treated group, 0.01 μl of Yoshixol was added to 25 units sample of the AMV reverse transcriptase. Thus, the expected production of cDNA was obtained in the non-treated group, however, the amount of cDNA production decreased to 10% of the expected one when Yoshixol was treated (referred FIG. 15).

[3] = test system: chicken myeloblastosis virus (AMV) reverse transcriptase; test: AMV reverse transcriptase, amount of cDNA synthesis; assay type: biochemical; details: 0.01 μl of Yoshixol added to 25 units AMV reverse transcriptase, RNA 5 μg, PCR
Protocol: as §1

[4] = test system: human blood (erythrocytes); test: Preservative effect on organs and tissues, stored human blood; assay type: cell-based; details: 5 ml human blood, 4 μl of Yoshixol
Protocol: After sampling 5 ml of human blood from a cubital vein, the blood sample was replaced into the vacuum tube with 10 ml capacity and was mixed in a gentle. The vacuum tubes were divided by two group; one group is nontreated and another treated with 4 μl of Yoshixol. Then, changes in morphological aspects of blood, which were stored at room temperature, were observed by a transmission type and scanning electron microscopes at 30 minutes, one hour and 1 month after the sampling. […] It was existed likely as a destroyed and aggregated mass. […] Many stomatocytes (lip-like erythrocyte) and echinocyte which is appeared at a lack of pyruvate kinase were observed.

[5] = test system: rejected reaction on heterogeneous skin implantation; test: Heterogeneous skin implantation, recipient dogs given Yoshixol intravenously; assay type: in vivo, dog (rabbit skin)
[6] = test system: spermatozoa; test: Inhibitory effect on flagellum motility of spermatozoa; assay type: cell-based, japanese bull
Protocol: In order to investigate an effect of Yoshixol on a flagellum motility of spermatozoa, the spermatozoa (seed japanese bull ID: Sinmorihide<registration No.Zen-Wa-Kuro1114, lot No.84Y28>) which has been conserved in the liquid nitrogen was thawing at 35° C. After thawing, 1 ml of semen was transferred to Petori-schale (grainer lab. GmHB) and, flagellum motility was observed by a phase contrast microscopy (IMT-2, Olympus Co.) and was recorded by a video film via a collar video camera (CCD-IRIS, Sony Co.) so that wave cycles and speed of the flagellum were analyzed by an original software of dynamic state analyzer. […] However, though a flagellum movement was completely stopped, the rotation of the head which occurs at the centriole (near junction between head and tail) was found during a few 10 seconds. And, a speed of this rotation gradually was decelerated with progress of a time. […] Moreover, from the knowledge that these movements of cells are involved in microfilaments and microtubles which is constricted from the proteins assembly, a morphological change of this spermatozoa due to treatment with Yoshixol was investigated by transmission type (JEM1200, EXII, JEOL, Ltd.) and scanning type (JSM-6000F, JEOL, Ltd.) electron microscopy. The outside of normal flagellum with regular basic structure of 9+2 is enclosed with a cell membrane and, there was the axial filament which structure is related to a movement is observed inside. The axial filament has […] (centrum pair) that exist mainly on the center and nine double tubles that exist in a periphery (circumscription canaliculus). […] But, though morphological aspect as a whole of spermatozoa was not altered by the treatment with Yoshixol, many particles with a size of 10-30 nm on the surface were observed likely to be blowed out, when the surface structure of flagellum was investigated by a magnification. And also, ring formation likely to a doughnut in which region is contributed to the movement was not found and, adhesion of small particles were noticeable (referred FIG. 28). […]

[7] = target: thrombin (Homo sapiens, UniProt P00734); test: Thrombin treated with Yoshixol added in fibrinogen, thromboelastgram; assay type: biochemical; design: thrombin (Behlinger Manheim-Yamanouchi Co.) was investigated by electrophoresis; purchased Behlinger Manheim-Yamanouchi Co
Protocol: Effect of Yoshixol (4 μl) on human blood coagulation and fibrin formation (thrombin was added to fibrinogen) were investigated by thromboelastgram (Hellige GMBH, West Germany). Also, a magnitude of fibrin network which is formed at human blood coagulation was investigated by a scanning electron microscopy. Coagulation of human blood without treatment with Yoshixol was started within 1-2 min so that maximum level of coagulation occurred approximately within 15 min, followed by gradual decrease due to activation of fibrinolytic system. Immediately after thrombin is added on fibrinogen, viscosity of the sample started to increase, reached to a maximum level within 5-6 minutes. This maximum level was maintained for periods of 6 hours which was observed (referred FIG. 3a). However, when Yoshixol (4 μl) was added in 0.4 ml of whole blood or fibrinogen (160 mg/dl), onset time of blood coagulation and fibrin formation was delayed to 4-5 minutes and maximum aggregation time was occurred within 6-8 minutes. Maximum level of coagulation after the treatment was inhibited by 90% of control which level was maintained over 6 hours of investigation (referred FIG. 3b).

With `C=C1CC(C)(C)C=CC1=O` [Yoshixol, 4,4-dimethyl-6-methylene-2-cyclohexen-1-one] the “colony formation unit (CFU)” value ([1]; 0.25 μl per 1 ml of culture medium) was 10^4 CFU, the “colony formation unit (CFU)” value ([1]; 2 μl per 1 ml of culture medium) was 10^2 CFU and the “colony formation unit (CFU)” value ([1]; 10 μl per 1 ml of culture medium) was “zero”. The “proliferation with evaporating component of Yoshixol” value ([1]; 50 μl in the whole space of the schale, indirect contact, 24 hours, 37° C.) was “did not occur”, the “histological aspect of cell death, scanning electron microscopy” value ([1]; after Yoshixol) was “separated to an individual bacterial cell” and the “helical and multi-dimensional structure of single strand DNA, double strand DNA and mRNA” value ([2]; 4 μl of Yoshixol in 1 ml phage solution (1 mol), electron microscopes) was “became a simple structure”. For the same compound, the “adhesion of the phage on the bacterial surface and/or intrabacterial existence” value ([2]; E. coli infected with phage treated with Yoshixol) was “not in the treated group”, the “amount of cDNA production, of the expected one” value [3] was 10% and the aggregation of erythrocytes ([4]; room temperature) was “did not show an aggregation with fibrin networks”. The “cell membrane and intracellular organella of erythrocytes” value ([4]; stored at room temperature) was “preserved normally over 1 month”, the “epithelialization of wounded skin” value ([5]; dogs, 10 μl/Kg per day intravenously for one week, 3 month after implantation) was “well epithelialization was found” and the “implantation of transplanted rabbit skin” value ([5]; dogs, 10 μl/Kg per day of Yoshixol intravenously for one week, no antibiotics or immunosuppressants) was “implanted on the back of dog over 1 month without a rejection reaction and bacterial infection”. For the same compound, the “behaviors of adult mongrel dog” value ([5]; intravenous administration, compared with before the treatment) was “became vigor, youthful and appetite-well”, the velocity of spermatozoa ([6]; 1 μl of Yoshixol added to 1 ml semen, normal 0.3-1.5 mm per second) was “zero” and the flagellum movement ([6]; after 1 μl of Yoshixol was added to 1 ml semen) was “immediately inhibited”. For the same compound, the “morphological aspect as a whole of spermatozoa” value ([6]; electron microscopy after treatment with Yoshixol) was “not altered” and the “aggregation reaction on thromboelastgram” value [7] was “any of aggregation reaction was not be found”.
